Key:
[1] = test system: HEK293 cells; test: Preliminary screening as mRNA vectors, EGFP mRNA transfection of HEK293 cells; assay type: cell-based; conditions: HEK293 cells, 96-well plates, EGFP mRNA 50 ng per well; percentage of GFP fluorescent cells relative to total number of cells (Hoechst)
How it was run: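 Each well of HEK293 cells received 50 ng of EGFP mRNA. Efficiency was expressed as percent GFP-expressing cells over Hoechst-defined total cell number.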

[2] = test system: HEK293 cells; test: Preliminary screening as DNA vectors, GFP transfection of HEK293 cells; assay type: cell-based; conditions: HEK293 cells; lipid/DOPE liposome with 75 ng plasmid DNA (psin-EGFP-IRES-Puro); number of cells expressing GFP divided by total number of nuclei (Hoechst)
How it was run: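 Lipid + DOPE liposomes (NaOAc, pH 5.6) complexed w/ 75 ng psin-EGFP-IRES-Puro, 30 min RT; added to 3-5×10^4 HEK293/well, 37° C. Hoechst 0.2 μg/mL at 20-24 h, imaged after further 20-24 h. Efficiency = GFP+ cells / total nuclei.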

| SMILES | Absolute mRNA transfection efficiency in HEK293 cells [1] [%] | Absolute DNA transfection efficiency in HEK293 cells [2] [%] |
| --- | --- | --- |
| CCCCCCCNc1nc(NCCCCCCC)nc(NCCN2CCCCC2)n1 [Compound N7N7D4] | 0.0 | 0.0 |
| CCCCCCCNc1nc(NCCCCCCC)nc(NCCN2CCN(C)CC2)n1 [Compound N7N7D5] | 0.5 | 0.0 |
| CCCCCCCNc1nc(NCCCCCCC)nc(NCCCN(C)C)n1 [Compound N7N7D6] | 0.0 | 0.0 |
| CCCCCCCNc1nc(NCCCCCCC)nc(NCCN(CC)CC)n1 [Compound N7N7D7] | 0.0 | 0.0 |
| CCCCCCCNc1nc(NCCCCCCC)nc(NCCCN2CCOCC2)n1 [Compound N7N7D8] | 0.0 | 0.0 |
| CCCCCCCNc1nc(NCCCCCCC)nc(NCCCN2CCN(C)CC2)n1 [Compound N7N7D9] | 0.0 | 0.0 |
| CCCCCCCNc1nc(NCCCCCCC)nc(NCC2CCN(C)CC2)n1 [Compound N7N7D10] | 0.0 | 0.1 |
| CCCCCCCCNc1nc(NCCCCCCC)nc(NCCN(C)C)n1 [Compound N7N8D1] | 0.0 | 0.2 |
| CCCCCCCCNc1nc(NCCCCCCC)nc(NCCN2CCOCC2)n1 [Compound N7N8D2] | 0.3 | 0.0 |
| CCCCCCCCNc1nc(NCCCCCCC)nc(NCCN2CCCC2)n1 [Compound N7N8D3] | 3.7 | 0.5 |
| CCCCCCCCNc1nc(NCCCCCCC)nc(NCCN2CCCCC2)n1 [Compound N7N8D4] | 0.0 | 0.2 |
| CCCCCCCCNc1nc(NCCCCCCC)nc(NCCN2CCN(C)CC2)n1 [Compound N7N8D5] | 0.0 | 0.0 |
| CCCCCCCCNc1nc(NCCCCCCC)nc(NCCCN(C)C)n1 [Compound N7N8D6] | 0.0 | 0.0 |
| CCCCCCCCNc1nc(NCCCCCCC)nc(NCCN(CC)CC)n1 [Compound N7N8D7] | 0.0 | 0.0 |
| CCCCCCCCNc1nc(NCCCCCCC)nc(NCCCN2CCOCC2)n1 [Compound N7N8D8] | 0.0 | 0.0 |
| CCCCCCCCNc1nc(NCCCCCCC)nc(NCCCN2CCN(C)CC2)n1 [Compound N7N8D9] | 0.2 | 0.7 |
| CCCCCCCCNc1nc(NCCCCCCC)nc(NCC2CCN(C)CC2)n1 [Compound N7N8D10] | 0.6 | 0.0 |
| CCCCCCCCCNc1nc(NCCCCCCC)nc(NCCN(C)C)n1 [Compound N7N9D1] | 0.0 | 0.6 |
| CCCCCCCCCNc1nc(NCCCCCCC)nc(NCCN2CCOCC2)n1 [Compound N7N9D2] | 0.0 | 0.0 |
| CCCCCCCCCNc1nc(NCCCCCCC)nc(NCCN2CCCC2)n1 [Compound N7N9D3] | 0.1 | 0.0 |
| CCCCCCCCCNc1nc(NCCCCCCC)nc(NCCN2CCCCC2)n1 [Compound N7N9D4] | 0.0 | 0.0 |
| CCCCCCCCCNc1nc(NCCCCCCC)nc(NCCN2CCN(C)CC2)n1 [Compound N7N9D5] | 0.2 | 0.0 |
| CCCCCCCCCNc1nc(NCCCCCCC)nc(NCCCN(C)C)n1 [Compound N7N9D6] | 0.0 | 0.0 |
| CCCCCCCCCNc1nc(NCCCCCCC)nc(NCCN(CC)CC)n1 [Compound N7N9D7] | 0.0 | 0.0 |
| CCCCCCCCCNc1nc(NCCCCCCC)nc(NCCCN2CCOCC2)n1 [Compound N7N9D8] | 0.0 | 0.0 |
| CCCCCCCCCNc1nc(NCCCCCCC)nc(NCCCN2CCN(C)CC2)n1 [Compound N7N9D9] | 0.0 | 0.7 |

| SMILES | Absolute mRNA transfection efficiency in HEK293 cells [1] [%] | Absolute DNA transfection efficiency in HEK293 cells [2] [%] |
| --- | --- | --- |
| CCCCCCCCCNc1nc(NCCCCCCC)nc(NCC2CCN(C)CC2)n1 [Compound N7N9D10] | 0.1 | 0.4 |
| CCCCCCCCCCCNc1nc(NCCCCCCC)nc(NCCN(C)C)n1 [Compound N7N11D1] | 0.0 | 1.3 |
| CCCCCCCCCCCNc1nc(NCCCCCCC)nc(NCCN2CCOCC2)n1 [Compound N7N11D2] | 0.0 | 0.1 |
| CCCCCCCCCCCNc1nc(NCCCCCCC)nc(NCCN2CCCC2)n1 [Compound N7N11D3] | 1.3 | 1.0 |
| CCCCCCCCCCCNc1nc(NCCCCCCC)nc(NCCN2CCCCC2)n1 [Compound N7N11D4] | 0.1 | 1.4 |
| CCCCCCCCCCCNc1nc(NCCCCCCC)nc(NCCN2CCN(C)CC2)n1 [Compound N7N11D5] | 0.1 | 0.6 |
| CCCCCCCCCCCNc1nc(NCCCCCCC)nc(NCCCN(C)C)n1 [Compound N7N11D6] | 1.5 | 1.1 |
| CCCCCCCCCCCNc1nc(NCCCCCCC)nc(NCCN(CC)CC)n1 [Compound N7N11D7] | 0.0 | 0.0 |
| CCCCCCCCCCCNc1nc(NCCCCCCC)nc(NCCCN2CCOCC2)n1 [Compound N7N11D8] | 0.0 | 0.0 |
| CCCCCCCCCCCNc1nc(NCCCCCCC)nc(NCCCN2CCN(C)CC2)n1 [Compound N7N11D9] | 0.0 | 0.1 |
| CCCCCCCCCCCNc1nc(NCCCCCCC)nc(NCC2CCN(C)CC2)n1 [Compound N7N11D10] | 0.2 | 0.7 |
| CCCCCCCCCCCCNc1nc(NCCCCCCC)nc(NCCN(C)C)n1 [Compound N7N12D1] | 0.1 | 0.2 |
| CCCCCCCCCCCCNc1nc(NCCCCCCC)nc(NCCN2CCOCC2)n1 [Compound N7N12D2] | 0.0 | 0.0 |
| CCCCCCCCCCCCNc1nc(NCCCCCCC)nc(NCCN2CCCC2)n1 [Compound N7N12D3] | 6.3 | 3.5 |
| CCCCCCCCCCCCNc1nc(NCCCCCCC)nc(NCCN2CCCCC2)n1 [Compound N7N12D4] | 0.6 | 0.0 |
| CCCCCCCCCCCCNc1nc(NCCCCCCC)nc(NCCN2CCN(C)CC2)n1 [Compound N7N12D5] | 0.0 | 0.3 |
| CCCCCCCCCCCCNc1nc(NCCCCCCC)nc(NCCCN(C)C)n1 [Compound N7N12D6] | 0.2 | 0.4 |
| CCCCCCCCCCCCNc1nc(NCCCCCCC)nc(NCCN(CC)CC)n1 [Compound N7N12D7] | 0.0 | 0.0 |
| CCCCCCCCCCCCNc1nc(NCCCCCCC)nc(NCCCN2CCOCC2)n1 [Compound N7N12D8] | 0.0 | 0.1 |
| CCCCCCCCCCCCNc1nc(NCCCCCCC)nc(NCCCN2CCN(C)CC2)n1 [Compound N7N12D9] | 0.0 | 0.1 |
| CCCCCCCCCCCCNc1nc(NCCCCCCC)nc(NCC2CCN(C)CC2)n1 [Compound N7N12D10] | 0.8 | 1.4 |
| CCCCCCCCCCCCCNc1nc(NCCCCCCC)nc(NCCN(C)C)n1 [Compound N7N13D1] | 0.4 | 1.0 |
| CCCCCCCCCCCCCNc1nc(NCCCCCCC)nc(NCCN2CCOCC2)n1 [Compound N7N13D2] | 0.0 | 0.1 |
| CCCCCCCCCCCCCNc1nc(NCCCCCCC)nc(NCCN2CCCC2)n1 [Compound N7N13D3] | 7.8 | 0.0 |
| CCCCCCCCCCCCCNc1nc(NCCCCCCC)nc(NCCN2CCCCC2)n1 [Compound N7N13D4] | 0.3 | 0.0 |

— patent US20230123334A1, “AMINO LIPID COMPOUND, PREPARATION METHOD THEREFOR, AND APPLICATION THEREOF” (SHENZHEN SHENXIN BIOTECHNOLOGY CO., LTD., priority 2020, published 2023)
